Measured values: US20220125765A1, “PHARMACEUTICAL COMBINATIONS COMPRISING MEBENDAZOLE AND A STRONG OR MODERATE CYP1A2 INHIBITOR” (ZEPHAPHARM LTD, priority 2019, published 2022)
Read-outs that look alike come from different tables or passages of the source.

Key:
[1] = target: T1, CYP2C8 (Homo sapiens, UniProt P10632); assay: Cytochrome P450 reaction phenotyping, recombinant CYP2C8 (Bactosomes)
T1 sequence (P10632 1-490): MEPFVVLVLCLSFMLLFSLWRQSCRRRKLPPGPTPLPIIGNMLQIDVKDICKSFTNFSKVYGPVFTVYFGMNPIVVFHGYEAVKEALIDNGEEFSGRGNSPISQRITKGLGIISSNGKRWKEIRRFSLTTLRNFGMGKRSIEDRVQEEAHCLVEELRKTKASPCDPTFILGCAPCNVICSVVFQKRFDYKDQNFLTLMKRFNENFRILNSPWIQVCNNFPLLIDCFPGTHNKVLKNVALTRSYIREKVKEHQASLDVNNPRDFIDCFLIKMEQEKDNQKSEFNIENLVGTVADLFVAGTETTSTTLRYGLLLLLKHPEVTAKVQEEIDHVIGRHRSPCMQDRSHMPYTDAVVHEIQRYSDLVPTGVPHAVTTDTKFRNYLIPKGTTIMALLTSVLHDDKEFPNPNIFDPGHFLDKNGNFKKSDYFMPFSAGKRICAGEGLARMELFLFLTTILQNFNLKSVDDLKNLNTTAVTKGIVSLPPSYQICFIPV
Method: (§1) Incubations were also performed using control Bactosomes™ (no P450 enzymes present) to reveal any non-enzymatic degradation. Control compounds known to be metabolised specifically by each P450 isoform were included. All incubations were performed singularly for each test compound.
(§2) Incubations were also performed using control Bactosomes™ (no P450 enzymes present) to reveal any non-enzymatic degradation. Control compounds known to be metabolised specifically by each P450 isoform were included. All incubations were performed singularly for each test compound. […] The reactions were stopped by transferring an aliquot of incubate to quench solvent at the appropriate time points, in a 1:3 ratio. The termination plates were centrifuged at 3,000 rpm for 20 min at 4° C. to precipitate the protein.

[2] = target: CYP2D6 (Homo sapiens, UniProt P10635); assay: Cytochrome P450 reaction phenotyping, recombinant CYP2D6 (Bactosomes)
Sequence of CYP2D6 (P10635 whole entry): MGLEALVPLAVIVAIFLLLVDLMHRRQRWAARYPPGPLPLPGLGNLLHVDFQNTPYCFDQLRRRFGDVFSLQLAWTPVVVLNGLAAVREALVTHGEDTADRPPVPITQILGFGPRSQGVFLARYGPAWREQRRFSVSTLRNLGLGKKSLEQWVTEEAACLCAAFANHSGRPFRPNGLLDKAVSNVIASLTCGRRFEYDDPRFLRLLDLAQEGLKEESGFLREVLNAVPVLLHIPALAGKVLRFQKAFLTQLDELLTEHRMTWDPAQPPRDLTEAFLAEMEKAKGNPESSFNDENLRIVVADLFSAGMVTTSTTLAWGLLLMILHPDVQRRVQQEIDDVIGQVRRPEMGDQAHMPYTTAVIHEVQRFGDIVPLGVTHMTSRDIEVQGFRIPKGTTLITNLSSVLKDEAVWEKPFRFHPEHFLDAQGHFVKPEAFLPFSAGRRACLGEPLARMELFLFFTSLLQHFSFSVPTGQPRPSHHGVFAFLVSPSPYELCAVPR
Method: as §1, §2

[3] = tested on: NBXF SH-SY5Y; assay: 2D monolayer CellTiter-Blue viability, neuroblastoma SH-SY5Y; format: cell-based; details: 72 h
Method: (§3) Seventeen compounds, including mebendazole (Batch no. […] Efficacy of compounds was assessed using CellTiter-Blue® Cell Viability Assay. Anti-tumor activity is expressed as absolute and relative IC50 and IC70 values, calculated by non-linear regression analysis.

[4] = tested on: SXFE RD-ES; assay: 2D monolayer CellTiter-Blue viability, Ewing sarcoma RD-ES; format: cell-based; details: 72 h
Method: as §3

[5] = tested on: SXFO 678; assay: 2D monolayer CellTiter-Blue viability, osteosarcoma SXFO 678; format: cell-based; details: 72 h
Method: as §3

[6] = tested on: RXF 1220L; assay: 2D monolayer CellTiter-Blue viability, renal cancer RXF 1220L; format: cell-based; details: for Test/Control (%) at Drug Concentration: 72 h
Method: (§4) Mebendazole was tested in vitro across a panel of 12 tumor cell lines of ovarian and renal cancer by using a 2D monolayer assay. […] OVXF 899L and RXF 486L are P-gp expressing, multidrug resistant cell lines.
(§5) Anti-tumor activity is expressed as absolute and relative IC50/70 values, calculated by 4-parameter non-linear curve fit.

[7] = tested on: RXF 1781L; assay: 2D monolayer CellTiter-Blue viability, renal cancer RXF 1781L; format: cell-based; details: for Test/Control (%) at Drug Concentration: 72 h; for IC50: RXF 1781L
Method: as §4, §5

COC(=O)Nc1nc2ccc(C(=O)c3ccccc3)cc2[nH]1 [Mebendazole, methyl N-(6-benzoyl-1H-benzimidazol-2-yl)carbamate]
Compound Remaining (% of 0 min) ([1]; CYP2C8, 5 μM, 0 min): 100 % of 0 min | Compound Remaining (% of 0 min) ([1]; CYP2C8, 5 μM, 5 min): 90.6 % of 0 min | Compound Remaining (% of 0 min) ([1]; CYP2C8, 5 μM, 15 min): 93.4 % of 0 min | Compound Remaining (% of 0 min) ([1]; CYP2C8, 5 μM, 30 min): 102 % of 0 min | Compound Remaining (% of 0 min) ([1]; CYP2C8, 5 μM, 45 min): 99.1 % of 0 min | % compound remaining ([1]; CYP2C8, 5 μM, time not stated): > 87.5% | t1/2 ([1]; CYP2C8, substrate 5 μM): >2.25 h | half-life at 5 μM ([1]; human, recombinant CYP2C8 (Bactosomes), pH 7.4): > 2.25 h | Compound Remaining (% of 0 min) ([2]; CYP2D6, 5 μM, 0 min): 100 % of 0 min | Compound Remaining (% of 0 min) ([2]; CYP2D6, 5 μM, 5 min): 93.6 % of 0 min | Compound Remaining (% of 0 min) ([2]; CYP2D6, 5 μM, 15 min): 93.3 % of 0 min | Compound Remaining (% of 0 min) ([2]; CYP2D6, 5 μM, 30 min): 94.6 % of 0 min | Compound Remaining (% of 0 min) ([2]; CYP2D6, 5 μM, 45 min): 90.4 % of 0 min | % compound remaining ([2]; CYP2D6, 5 μM, time not stated): > 87.5% | t1/2 ([2]; CYP2D6, substrate 5 μM): >2.25 h | half-life at 5 μM ([2]; human, recombinant CYP2D6 (Bactosomes), pH 7.4): > 2.25 h | Test/Control (%) at Drug Concentration ([3]; 1.0E+00 μM): 1% | Test/Control (%) at Drug Concentration ([3]; 1.0E+01 μM): 0% | Test/Control (%) at Drug Concentration ([3]; 1.0E+02 μM): −1% | Test/Control (%) at Drug Concentration ([3]; 1.0E−01 μM): 63% | Test/Control (%) at Drug Concentration ([3]; 1.0E−02 μM): 81% | Test/Control (%) at Drug Concentration ([3]; 3.2E+00 μM): 1% | Test/Control (%) at Drug Concentration ([3]; 3.2E+01 μM): 0% | Test/Control (%) at Drug Concentration ([3]; 3.2E−01 μM): 6% | Test/Control (%) at Drug Concentration ([3]; 3.2E−02 μM): 78% | Test/Control (%) at Drug Concentration ([3]; 3.2E−03 μM): 94% | Test/Control (%) at Drug Concentration ([4]; 1.0E+00 μM): 14% | Test/Control (%) at Drug Concentration ([4]; 1.0E+01 μM): 6% | Test/Control (%) at Drug Concentration ([4]; 1.0E+02 μM): 3% | Test/Control (%) at Drug Concentration ([4]; 1.0E−01 μM): 78% | Test/Control (%) at Drug Concentration ([4]; 1.0E−02 μM): 88% | Test/Control (%) at Drug Concentration ([4]; 3.2E+00 μM): 7% | Test/Control (%) at Drug Concentration ([4]; 3.2E+01 μM): 5% | Test/Control (%) at Drug Concentration ([4]; 3.2E−01 μM): 29% | Test/Control (%) at Drug Concentration ([4]; 3.2E−02 μM): 84% | Test/Control (%) at Drug Concentration ([4]; 3.2E−03 μM): 93% | Test/Control (%) at Drug Concentration ([5]; SXFO 678, 1.0E+00 μM): 11% | Test/Control (%) at Drug Concentration ([5]; SXFO 678, 1.0E+01 μM): 28% | Test/Control (%) at Drug Concentration ([5]; SXFO 678, 1.0E+02 μM): 11% | Test/Control (%) at Drug Concentration ([5]; SXFO 678, 1.0E−01 μM): 64% | Test/Control (%) at Drug Concentration ([5]; SXFO 678, 1.0E−02 μM): 87% | Test/Control (%) at Drug Concentration ([5]; SXFO 678, 3.2E+00 μM): 22% | Test/Control (%) at Drug Concentration ([5]; SXFO 678, 3.2E+01 μM): 21% | Test/Control (%) at Drug Concentration ([5]; SXFO 678, 3.2E−01 μM): 14% | Test/Control (%) at Drug Concentration ([5]; SXFO 678, 3.2E−02 μM): 88% | Test/Control (%) at Drug Concentration ([5]; SXFO 678, 3.2E−03 μM): 90% | Test/Control (%) at Drug Concentration ([6]; RXF 1220, 1.0E+00 μM): 70% | Test/Control (%) at Drug Concentration ([6]; RXF 1220, 1.0E−01 μM): 99% | Test/Control (%) at Drug Concentration ([6]; RXF 1220, 1.0E−02 μM): 113% | Test/Control (%) at Drug Concentration ([6]; RXF 1220, 1.0E−03 μM): 98% | Test/Control (%) at Drug Concentration ([6]; RXF 1220, 1.0E−04 μM): 99% | Test/Control (%) at Drug Concentration ([6]; RXF 1220, 3.2E+00 μM): 61% | Test/Control (%) at Drug Concentration ([6]; RXF 1220, 3.2E−01 μM): 83% | Test/Control (%) at Drug Concentration ([6]; RXF 1220, 3.2E−02 μM): 99% | Test/Control (%) at Drug Concentration ([6]; RXF 1220, 3.2E−03 μM): 106% | Test/Control (%) at Drug Concentration ([6]; RXF 1220, 3.2E−04 μM): 102% | Abs. IC70 ([6]; RXF 1220, 72 h): >3200 nM | Rel. IC70 ([6]; RXF 1220, 72 h): 751 nM | Bot. (%) ([6]; RXF 1220, 72 h, curve fit): 59% | Top (%) ([6]; RXF 1220, 72 h, curve fit): 103% | IC50 ([6]; RXF 1220, 72 h, read-out: Abs. IC50): > 3200 nM | IC50 ([6]; RXF 1220, 72 h, read-out: Rel. IC50): 398 nM | Test/Control (%) at Drug Concentration ([7]; RXF 1781, 1.0E+00 μM): 25% | Test/Control (%) at Drug Concentration ([7]; RXF 1781, 1.0E−01 μM): 91% | Test/Control (%) at Drug Concentration ([7]; RXF 1781, 1.0E−02 μM): 92% | Test/Control (%) at Drug Concentration ([7]; RXF 1781, 1.0E−03 μM): 101% | Test/Control (%) at Drug Concentration ([7]; RXF 1781, 1.0E−04 μM): 98% | Test/Control (%) at Drug Concentration ([7]; RXF 1781, 3.2E+00 μM): 32% | Test/Control (%) at Drug Concentration ([7]; RXF 1781, 3.2E−01 μM): 61% | Test/Control (%) at Drug Concentration ([7]; RXF 1781, 3.2E−02 μM): 95% | Test/Control (%) at Drug Concentration ([7]; RXF 1781, 3.2E−03 μM): 95% | Test/Control (%) at Drug Concentration ([7]; RXF 1781, 3.2E−04 μM): 100% | Abs. IC70 ([7]; RXF 1781, 72 h): 978 nM | Rel. IC70 ([7]; RXF 1781, 72 h): 410 nM | Bot. (%) ([7]; RXF 1781, 72 h, curve fit): 28% | Top (%) ([7]; RXF 1781, 72 h, curve fit): 96% | IC50 ([7]; RXF 1781, 72 h, read-out: Abs. IC50): 395 nM | IC50 ([7]; RXF 1781, 72 h, read-out: Rel. IC50): 309 nM
